Assays:
Format in all cases: biochemical
[1] = molecular target: T1, JAK1 (Homo sapiens, UniProt P23458); experiment: Z'-LYTE kinase assay JAK1
T1 construct: 5 μl of catalytic domain recombinant Kinase enzyme+Tyr peptide substrate (Invitrogen, CA); purchased Invitrogen
How it was run: (§1)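 Z′-LYTE FRET, Tyr6 peptide, recombinant catalytic domain + ATP, 1 h RT, 1% DMSO final, duplicates; protease development 1 h RT; fluorescence read.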

[2] = molecular target: T2, JAK3 (Homo sapiens, UniProt P52333); experiment: Z'-LYTE kinase assay JAK3
T2 construct: 5 μl of catalytic domain recombinant Kinase enzyme+Tyr peptide substrate (Invitrogen, CA); purchased Invitrogen
T2 sequence (P52333 822-1111 limits assumed): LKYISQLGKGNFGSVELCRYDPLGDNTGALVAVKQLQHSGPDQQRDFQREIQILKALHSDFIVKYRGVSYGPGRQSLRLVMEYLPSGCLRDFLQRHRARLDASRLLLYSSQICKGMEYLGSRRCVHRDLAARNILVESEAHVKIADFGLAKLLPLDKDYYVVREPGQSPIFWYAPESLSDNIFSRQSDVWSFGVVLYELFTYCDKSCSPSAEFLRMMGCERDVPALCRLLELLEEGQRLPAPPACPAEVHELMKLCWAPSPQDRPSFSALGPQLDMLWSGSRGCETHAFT
How it was run: as §1

[3] = molecular target: T3, JAK2 (Homo sapiens, UniProt O60674); experiment: Z'-LYTE kinase assay JAK2
T3 construct: 5 μl of catalytic domain recombinant Kinase enzyme+Tyr peptide substrate (Invitrogen, CA); purchased Invitrogen
T3 sequence (O60674 849-1124 limits assumed): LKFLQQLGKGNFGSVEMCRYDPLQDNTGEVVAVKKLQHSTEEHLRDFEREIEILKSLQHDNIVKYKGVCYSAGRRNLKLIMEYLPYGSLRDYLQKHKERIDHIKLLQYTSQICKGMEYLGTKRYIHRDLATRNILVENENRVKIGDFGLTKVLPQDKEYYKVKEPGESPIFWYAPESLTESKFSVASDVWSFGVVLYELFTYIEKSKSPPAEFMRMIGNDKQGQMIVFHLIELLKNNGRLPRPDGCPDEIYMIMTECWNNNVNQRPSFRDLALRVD
How it was run: as §1

T1 sequence (P23458 875-1153 limits assumed): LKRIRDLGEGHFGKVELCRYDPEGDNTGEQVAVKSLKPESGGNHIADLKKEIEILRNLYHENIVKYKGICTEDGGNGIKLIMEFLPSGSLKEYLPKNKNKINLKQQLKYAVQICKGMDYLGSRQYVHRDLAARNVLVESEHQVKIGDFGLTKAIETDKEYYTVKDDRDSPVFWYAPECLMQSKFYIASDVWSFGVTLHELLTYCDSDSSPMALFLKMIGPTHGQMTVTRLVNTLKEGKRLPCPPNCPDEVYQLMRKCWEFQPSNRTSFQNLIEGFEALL

| SMILES | IC50 [1] [nM] | IC50 [2] [nM] | IC50 [3] [nM] |
| --- | --- | --- | --- |
| COCC(=O)N1CC(c2ccc(Nc3cc(NCc4cccc5[nH]ccc45)c(C(N)=O)cn3)cc2)C1 [Example 494, 4-((1H-indol-4-yl)methylamino)-6-(4-(1-(2-methoxyacetyl)azetidin-3-yl)phenylamino)nicotinamide] | 1 to 10 | < 1 | 1 to 10 |
| NC(=O)c1cnc(Nc2ccc3ncsc3c2)cc1NCc1ccccc1 [Example 90, 6-(benzo[d]thiazol-6-ylamino)-4-(benzylamino)nicotinamide] | > 1000 | 10 to 100 | > 1000 |
| Cn1cc(CNc2cc(Nc3ccc(C4CCOCC4)cc3)ncc2C(N)=O)cn1 [Example 173, 4-((1-methyl-1H-pyrazol-4-yl)methylamino)-6-(4-(tetrahydro-2H-pyran-4-yl)phenylamino)nicotinamide] | > 1000 | 100 to 1000 | > 1000 |
| NC(=O)c1cnc(Nc2ccc(-n3cccn3)nc2)cc1NCc1ccccc1 [Example 278, 6-(6-(1H-pyrazol-1-yl)pyridin-3-ylamino)-4-(benzylamino)nicotinamide] | > 1000 | 100 to 1000 | > 1000 |
| Cc1cc(Nc2cc(NCc3cccc(F)c3F)c(C(N)=O)cn2)ccc1C(=O)N1CCOCC1 [Example 455, 4-(2,3-difluorobenzylamino)-6-(3-methyl-4-(morpholine-4-carbonyl)phenylamino)nicotinamide] | 100 to 1000 | 1 to 10 | 10 to 100 |
| CN(C)C(=O)c1ccc(Nc2cc(NCC3CCCC3)c(C(N)=O)cn2)cc1 [Example 96, 4-(cyclopentylmethylamino)-6-(4-(dimethylcarbamoyl)phenylamino)nicotinamide] | 100 to 1000 | 10 to 100 | 100 to 1000 |
| Cn1c(CNc2cc(Nc3ccc(C4CCOCC4)cc3)ncc2C(N)=O)nc2ccccc21 [Example 182, 4-((1-methyl-1H-benzo[d]imidazol-2-yl)methylamino)-6-(4-(tetrahydro-2H-pyran-4-yl)phenylamino)nicotinamide] | > 1000 | > 1000 | > 1000 |
| CN(C)C(=O)c1ccc(Nc2cc(NCc3cccc4cc[nH]c34)c(C(N)=O)cn2)cc1 [Example 288, 4-((1H-indol-7-yl)methylamino)-6-(4-(dimethylcarbamoyl)phenylamino)nicotinamide] | > 1000 | 1 to 10 | 10 to 100 |
| CCC(=O)N1CCC[C@H](CNc2cc(Nc3ccc(OC)cc3)ncc2C(N)=O)C1 [Example 271, (R)-6-(4-methoxyphenylamino)-4-((1-propionylpiperidin-3-yl)methylamino)nicotinamide] | > 1000 | 10 to 100 | > 1000 |
| NC(=O)c1cnc(Nc2cccc(C(=O)N3CCC3)c2)cc1NCc1cc(F)ccc1F [Example 99, 6-(3-(azetidine-1-carbonyl)phenylamino)-4-(2,5-difluorobenzylamino)nicotinamide] | 100 to 1000 | 1 to 10 | 100 to 1000 |
| COc1ccc(Nc2cc(Nc3ccc(OC)cc3)c(C(N)=O)cn2)cc1 [Example 34, 4,6-bis(4-methoxyphenylamino)nicotinamide] | > 1000 | > 1000 | > 1000 |
| NC(=O)c1cnc(Nc2ccc3cnccc3c2)cc1NCc1ccccc1 [Example 88, 4-(benzylamino)-6-(isoquinolin-6-ylamino)nicotinamide] | > 1000 | 10 to 100 | > 1000 |
| CCC(=O)N1CCC(c2ccc(Nc3cc(NCc4cccc(-c5cccnc5)c4)c(C(N)=O)cn3)cc2)CC1 [Example 416, 6-(4-(1-propionylpiperidin-4-yl)phenylamino)-4-(3-(pyridine-3-yl)benzylamino)nicotinamide] | > 1000 | 1 to 10 | > 1000 |
| Cc1cc(Nc2cc(NCc3cncnc3)c(C(N)=O)cn2)ccc1C(=O)N(C)C [Example 287, 6-(4-(dimethylcarbamoyl)-3-methylphenylamino)-4-(pyrimidin-5-ylmethylamino)nicotinamide] | > 1000 | 100 to 1000 | > 1000 |
| CN1C(=O)COc2ccc(Nc3cc(NCc4ccccc4)c(C(N)=O)cn3)cc21 [Example 85, 4-(benzylamino)-6-(4-methyl-3-oxo-3,4-dihydro-2H-benzo[b][1,4]oxazin-6-ylamino)nicotinamide] | > 1000 | 10 to 100 | > 1000 |
| CCC(=O)N1CCC(c2ccc(Nc3cc(NCc4cnn(C)c4)c(C(N)=O)cn3)cc2)CC1 [Example 178, 4-((1-methyl-1H-pyrazol-4-yl)methylamino)-6-(4-(1-propionylpiperidin-4-yl)phenylamino)nicotinamide] | > 1000 | 100 to 1000 | > 1000 |

| SMILES | IC50 [1] [nM] | IC50 [2] [nM] | IC50 [3] [nM] |
| --- | --- | --- | --- |
| COc1ccc(Nc2cc(NCC3CCN(C(C)=O)CC3)c(C(N)=O)cn2)cc1 [Example 35, 4-((1-acetylpiperidin-4-yl)methylamino)-6-(4-methoxyphenylamino)nicotinamide] | > 1000 | > 1000 | > 1000 |
| Cc1cc(Nc2cc(NCc3cccc4[nH]ccc34)c(C(N)=O)cn2)ccc1C(=O)N1CCC1 [Example 460, 4-((1H-indol-4-yl)methylamino)-6-(4-(azetidine-1-carbonyl)-3-methylphenylamino)nicotinamide] | 1 to 10 | < 1 | 1 to 10 |
| COc1ccc(Nc2cc(NCc3ccncn3)c(C(N)=O)cn2)cc1 [Example 298, 6-(4-methoxyphenylamino)-4-(pyrimidin-4-ylmethylamino)nicotinamide] | > 1000 | 100 to 1000 | > 1000 |
| C[C@H](Nc1cc(Nc2ccc(C3CCOCC3)cc2)ncc1C(N)=O)C(C)(C)C [Example 167, (S)-4-(3,3-dimethylbutan-2-ylamino)-6-(4-(tetrahydro-2H-pyran-4-yl)phenylamino)nicotinamide] | > 1000 | 100 to 1000 | > 1000 |
| CN1CCC(C(=O)Nc2cc(Nc3cc(NC4(c5ccccc5)CC4)c(C(N)=O)cn3)ccc2Cl)CC1 [Example 136, 6-(4-chloro-3-(1-methylpiperidine-4-carboxamido)phenylamino)-4-(1-phenylcyclopropylamino)nicotinamide] | > 1000 | 10 to 100 | > 1000 |
| COc1ccc(Nc2cc(NCc3cccc4cc[nH]c34)c(C(N)=O)cn2)cc1 [Example 282, 4-((1H-indol-7-yl)methylamino)-6-(4-methoxyphenylamino)nicotinamide] | > 1000 | 10 to 100 | > 1000 |
| NC(=O)c1cnc(Nc2ccc(C3CCOCC3)cc2)cc1NCc1cn(CCN2CCCCC2)nn1 [Example 201, 4-((1-(2-(piperidin-1-yl)ethyl)-1H-1,2,3-triazol-4-yl)methylamino)-6-(4-(tetrahydro-2H-pyran-4-yl)phenylamino)nicotinamide] | > 1000 | > 1000 | > 1000 |
| CCC(=O)N1CCC(c2ccc(Nc3cc(NCc4ccc(F)c(F)c4)c(C(N)=O)cn3)cc2)CC1 [Example 148, 4-(3,4-difluorobenzylamino)-6-(4-(1-propionylpiperidin-4-yl)phenylamino)nicotinamide] | > 1000 | 100 to 1000 | 100 to 1000 |
| CN(C)C(=O)c1ccc(Nc2cc(NCc3ccccc3)c(C(=O)N(C)C)cn2)cc1 [Example 30, 4-(benzylamino)-6-(4-(dimethylcarbamoyl)phenylamino)-N,N-dimethylnicotinamide] | > 1000 | > 1000 | > 1000 |
| CC(=O)Nc1ccc(Nc2cc(NCc3cccc4ccsc34)c(C(N)=O)cn2)cc1 [Example 471, 6-(4-acetamidophenylamino)-4-(benzo[b]thiophen-7-ylmethylamino)nicotinamide] | 10 to 100 | 1 to 10 | 10 to 100 |
| CCC(=O)N(C)c1ccc(Nc2cc(NCc3cccc4[nH]ccc34)c(C(N)=O)cn2)cc1 [Example 475, 4-((1H-indol-4-yl)methylamino)-6-(4-(N-methylpropionamido)phenylamino)nicotinamide] | 10 to 100 | 1 to 10 | 10 to 100 |
| CS(=O)(=O)N1CCC(c2cccc(Nc3cc(NCc4ccccc4F)c(C(N)=O)cn3)c2)CC1 [Example 121, 4-(2-fluorobenzylamino)-6-(3-(1-(methylsulfonyl)piperidin-4-yl)phenylamino)nicotinamide] | 100 to 1000 | 10 to 100 | 100 to 1000 |
| CC(=O)N(C)c1ccc(Nc2cc(NCc3cccc(F)n3)c(C(N)=O)cn2)cc1 [Example 485, 4-((6-fluoropyridin-2-yl)methylamino)-6-(4-(N-methylacetamido)phenylamino)nicotinamide] | > 1000 | 10 to 100 | 100 to 1000 |
| COc1ccc(Nc2cc(NCc3ccccc3)c(C(N)=O)cn2)cc1Cl [Example 332, 4-(benzylamino)-6-(3-chloro-4-methoxyphenylamino)nicotinamide] | > 1000 | 10 to 100 | > 1000 |
| C#CCNc1cc(Nc2ccc(C3CCOCC3)cc2)ncc1C(N)=O [Example 184, 4-(prop-2-ynylamino)-6-(4-(tetrahydro-2H-pyran-4-yl)phenylamino)nicotinamide] | > 1000 | 100 to 1000 | > 1000 |
| CC(=O)N1CCC(CNc2cc(Nc3ccc(C(=O)N4CCCC4)cc3)ncc2C(N)=O)CC1 [Example 43, 4-((1-acetylpiperidin-4-yl)methylamino)-6-(4-(pyrrolidine-1-carbonyl)phenylamino)nicotinamide] | > 1000 | 100 to 1000 | > 1000 |

— patent US20150353495A1 (PORTOLA PHARMACEUTICALS, INC., priority 2010, published 2015)
